This assay has as its target T1, purified STEP46 enzyme (Homo sapiens, UniProt P54829).
T1 sequence (P54829 197-565 limits assumed): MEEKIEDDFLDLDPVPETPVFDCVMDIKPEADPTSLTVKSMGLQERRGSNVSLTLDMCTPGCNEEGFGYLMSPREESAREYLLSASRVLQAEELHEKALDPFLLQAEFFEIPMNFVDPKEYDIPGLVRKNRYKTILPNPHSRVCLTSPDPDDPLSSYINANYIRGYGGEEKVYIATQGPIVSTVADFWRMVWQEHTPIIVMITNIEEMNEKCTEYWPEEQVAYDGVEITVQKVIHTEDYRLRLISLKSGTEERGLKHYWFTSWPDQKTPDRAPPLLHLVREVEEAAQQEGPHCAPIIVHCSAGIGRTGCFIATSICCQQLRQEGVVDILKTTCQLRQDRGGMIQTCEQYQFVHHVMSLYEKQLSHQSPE
The experiment in a line: STEP46 biochemical assay (DiFMUP fluorescence phosphatase assay). Conditions: DiFMUP 10 μM, read-out: STEP IC50. Here is the method:
Serial dilutions of compounds were performed in 100% DMSO and 1 uL of compounds were dispensed into 384-well black polystyrene plates (Corning, N.Y.). Compounds were incubated with 24 uL of buffer containing 50 mM Hepes, 1 mM DTT, 0.02% Brij35, 1 ng/well purified STEP46 enzyme for […] at room temperature. The reaction was initiated by addition of 25 uL of DiFMUP (6,8-difluoro-4-methylumbelliferyl phosphate) (InVitrogen, CA) with a final concentration of 10 μM and incubated at 27° C. for 90 mM Final DMSO concentration is 2%. Plates were read with florescence intensity at excitation/emission of 360/460 nm using a PheraStar plate reader (BMG Labtech, NC).
Data were expressed as percentage (%) inhibition of enzyme activity. 0% inhibition is defined as the RFUs (relative fluorescence units) in the absence of compounds and 100% inhibition is defined as RFUs in the absence of STEP46 enzyme. IC50 values of compounds with inhibitory activity against STEP46 were determined by GraphPad Prism (version 4.03) using four parameter logistic equation. Some compounds act as activators. For compounds showing STEP46 enzymatic activation, data are represented as percentage of inhibition but with negative values at three representative concentrations (25, 50 and 100 uM).

Some results are limits rather than exact numbers.

With `Fc1ccc(-c2ccc3nc(-c4cccnc4)nc(-c4ncco4)c3c2)c(F)c1` [Compound 425], the IC50 fell in the range of 1 to 10 µM. The figure for `c1ccc(CNc2nc(-c3cccnc3)nc3ccc(-c4cc5ccccc5o4)cc23)nc1` [Compound 343] is less than 1 µM; for `CNc1nc(-c2cccnc2)nc2c(F)c(-c3ccncc3)ccc12` [Compound 519] it is 1 to 10 µM. Regarding `CNc1nc(-c2cccnc2)nc2ccc(-c3ccc4c(c3)SCC(=O)N4)cc12` [Compound 471], the IC50 was in the range of 1 to 10 µM. For `CC(Nc1nc(-c2cccnc2)nc2cc(-c3cc(F)ccc3F)ccc12)c1ccccn1` (centres unmarked) [Compound 368], the IC50 was in the range of 1 to 10 µM. Regarding `CNc1nc(-c2cccnc2)nc2ccc(-c3ccc(F)cc3C(F)(F)F)cc12` [Compound 248], the IC50 was greater than 10 µM. As for `CNC(=O)C1CN(c2nc(-c3cccnc3)nc3ccc(-c4ccc(F)cc4F)cc23)C1` [Compound 423], the IC50 lay within 1 to 10 µM.

Consider `CNc1nc(-c2cccnc2)nc2ccc(-c3ccc4sc(C)nc4c3)cc12` [Compound 169, N-methyl-6-(2-methylbenzo[d]thiazol-5-yl)-2-(pyridin-3-yl)quinazolin-4-amine, 2HCl], for which the IC50 was less than 1 µM. Turning to `CCOc1ccc2nc(-c3cccnc3)nc(Nc3cncc(C)c3)c2c1` [Compound 65], the IC50 fell in the range of 1 to 10 µM. As to `CNc1nc(-c2cccnc2)nc2c(-c3cc(F)cc(F)c3)ccc(OC)c12` [Compound 491], the IC50 lay in the range of 1 to 10 µM. As to `CNc1nc(-c2cccnc2)nc2c(F)c(-c3ccccc3F)ccc12` [Compound 513], the IC50 was 1 to 10 µM. Turning to `CNc1nc(-c2cccnc2)nc2c(-c3cc(F)cc(F)c3)cccc12` [Compound 277], the IC50 is greater than 10 µM.

Turning to `CNc1nc(-c2cccnc2)nc2cc(-c3ccc(F)cc3OC)ccc12` [Compound 322], the IC50 lay within 1 to 10 µM.

Turning to `CNc1nc(-c2cccnc2)nc2cc(-c3c(F)ccc(F)c3C)ccc12` [Compound 323], the IC50 was greater than 10 µM.

As to `CNc1nc(-c2cccnc2)nc2cc(-c3cccc(C#N)c3)c(F)cc12` [Compound 556], the IC50 was in the range of 1 to 10 µM.

For the compound `Fc1ccc(-c2ccc3nc(-c4cccnc4)nc(N4CCc5cc(F)ccc54)c3c2)cc1` [Compound 91], the IC50 lay within 1 to 10 µM.

`Clc1ccc2c(c1)CCN2c1nc(-c2cccnc2)nc2cc(Br)ccc12` [Compound 14]: the IC50 lay within 1 to 10 µM. Consider `CC(Nc1nc(-c2cccnc2)nc2cc(-c3cc(F)cc(F)c3)ccc12)c1ccccn1` (centres unmarked) [Compound 370], for which the 50% inhibitory concentration (IC50) lay within 1 to 10 µM. Turning to `CNc1nc(-c2cccnc2)nc2cc(-c3ccc(C#N)cc3)c(F)cc12` [Compound 559], the concentration for half-maximal inhibition (IC50) was 1 to 10 µM. As to `Fc1ccc(-c2ccc3nc(-c4cccnc4)nc(N4CCC4)c3c2)c(F)c1` [Compound 411], the IC50 is 1 to 10 µM. With `Cc1ccc2c(c1)CCN2c1nc(-c2cccnc2)nc2ccc(-c3ccc(F)cc3)cc12` [Compound 79], the IC50 fell in the range of 1 to 10 µM.

Turning to `CNc1nc(-c2cccnc2)nc2ccc(-c3ccc(S(C)(=O)=O)c(C(F)(F)F)c3)cc12` [Compound 199], the half-inhibitory concentration (IC50) was 1 to 10 µM.

As to `CNc1nc(-c2cccnc2)nc2cc(OC)c(-c3cccc(F)c3F)cc12` [Compound 230], the IC50 lay in the range of 1 to 10 µM. As to `CNc1nc(-c2cccnc2)nc2c(F)c(-c3cc(F)ccc3F)ccc12` [Compound 514], the IC50 lay within 1 to 10 µM. Regarding `CNc1nc(-c2cccnc2)nc2c(OC)cc(-c3ccccc3F)cc12` [Compound 254], the IC50 fell in the range of 1 to 10 µM. With `[2H]C([2H])([2H])Nc1nc(-c2cccnc2)nc2cc(-c3cc(F)ccc3F)ccc12` [Compound 390], the IC50 lay in the range of 1 to 10 µM. On to `CNc1nc(-c2cccnc2)nc2ccc(-c3cccc(S(C)(=O)=O)c3)cc12` [Compound 245], for which the IC50 was greater than 10 µM.

Consider `Clc1ccc2c(c1)CCN2c1nc(-c2cccnc2)nc2ccc(-c3ccc4c(c3)OCO4)cc12` [Compound 76], for which the IC50 lay in the range of 1 to 10 µM. The same measure for `Fc1ccc(-c2ccc3nc(-c4cccnc4)nc(Nc4ccccn4)c3c2)cc1` [Compound 437]: 1 to 10 µM. In the case of `COc1cc(-c2ccc(F)cc2F)cc2c(N3CC(OC)C3)nc(-c3cccnc3)nc12` [Compound 741], the IC50 lay within 1 to 10 µM. The figure for `CNc1nc(-c2cccnc2)nc2ccc(-c3nnc(-c4ccccc4)s3)cc12` [Compound 466] is 1 to 10 µM; for `COc1ccc2nc(-c3cccnc3)nc(N3CCc4cc(Br)ccc43)c2c1` [Compound 6] it is greater than 10 µM. For `Nc1nc(-c2cccnc2)nc2cc(-c3cc(F)c(F)c(F)c3)ccc12` [Compound 312], the IC50 lay within 1 to 10 µM. Regarding `CNc1nc(-c2cccnc2)nc2c(OC)cc(-c3ccc(Cl)cc3)cc12` [Compound 307], the IC50 lay in the range of 1 to 10 µM. For `CNc1nc(-c2cccnc2)nc2c(OC)cc(-c3ccc(C#N)cc3)cc12` [Compound 260], the IC50 is greater than 10 µM. In the case of `CCCOc1ccc2nc(-c3cccnc3)nc(N3CCc4cc(Cl)ccc43)c2c1` [Compound 137], the IC50 was less than 1 µM. As to `CNc1nc(-c2cccnc2)nc2c(Cl)cc(-c3cccc(F)c3)cc12` [Compound 264], the IC50 is 1 to 10 µM. Consider `CNc1nc(-c2cccnc2)nc2c(F)c(-c3ccc(OC)cc3)ccc12` [Compound 518], for which the IC50 was in the range of 1 to 10 µM. With `CNc1nc(-c2cccnc2)nc2c(F)c(-c3ccc(F)cc3)ccc12` [Compound 505], the IC50 fell in the range of 1 to 10 µM. For the compound `COc1ccc2c(c1)CCN2c1nc(-c2cccnc2)nc2ccc(Br)cc12` [Compound 21], the IC50 was greater than 10 µM.

For `CNc1nc(-c2cccnc2)nc2cc(-c3cc(C)oc3C)ccc12` [Compound 276], the IC50 was greater than 10 µM.

`CNc1nc(-c2cccnc2)nc2cc(OC(F)(F)F)c(-c3cccc(F)c3)cc12` [Compound 209]: the IC50 lay in the range of 1 to 10 µM. The figure for `CNc1nc(-c2cccnc2)nc2cc(-c3cc(F)ccc3F)c(F)cc12` [Compound 554] is 1 to 10 µM.

Take `CNc1nc(-c2cccnc2)nc2ccc(-c3cccc(OCCC(C)O)c3)cc12` (centres unmarked) [Compound 224]: the IC50 was in the range of 1 to 10 µM. Regarding `CNc1nc(-c2cccnc2)nc2cc(-c3cc(F)cc(F)c3)c(F)cc12` [Compound 555], the half-inhibitory concentration (IC50) is less than 1 µM. For `CCOc1ccc2nc(-c3cccnc3)nc(Nc3cncc(F)c3)c2c1` [Compound 47], the half-maximal inhibitory concentration (IC50) lay within 1 to 10 µM.

Consider `CNc1nc(-c2cnccn2)nc2cc(-c3ccc(F)cc3F)ccc12` [Compound 395], for which the IC50 is 1 to 10 µM.

Take `CNc1nc(-c2cccnc2)nc2c(-c3cccc(F)c3F)ccc(OC)c12` [Compound 492]: the IC50 fell in the range of 1 to 10 µM. In the case of `CN(C)c1nc(-c2cccnc2)nc2ccc(-c3ccc(C4CC4)cc3)cc12` [Compound 308], the IC50 was greater than 10 µM. The figure for `CC(Nc1nc(-c2cccnc2)nc2ccc(-c3ccccc3F)cc12)c1ccccc1` (centres unmarked) [Compound 603] is 1 to 10 µM; for `CNc1nc(-c2cccnc2)nc2cc(C)c(-c3cccc(F)c3)cc12` [Compound 299] it is 1 to 10 µM. For `CNc1nc(-c2cccnc2)nc2ccc(-c3ccc(F)cc3F)c(OC)c12` [Compound 487], the IC50 was in the range of 1 to 10 µM. In the case of `COc1ccc2nc(-c3cccnc3)nc(Nc3ccnc(F)c3)c2c1` [Compound 43], the IC50 is less than 1 µM. The same measure for `CNc1nc(-c2cccnc2)nc2c(OC)cc(-c3cccc(F)c3)cc12` [Compound 253]: 1 to 10 µM; for `Fc1ccc(-c2ccc3nc(-c4cccnc4)nc(-c4cscn4)c3c2)c(F)c1` [Compound 421, 4-(6-(2,4-difluorophenyl)-2-(pyridin-3-yl)quinazolin-4-yl)thiazole]: less than 1 µM. As to `CNc1nc(-c2cccnc2)nc2ccc(-c3ccc(CO)cc3)cc12` [Compound 173], the IC50 lay within 1 to 10 µM. On to `CNc1nc(-c2cccnc2)nc2ccc(-c3cccc(OC(C)C)c3)cc12` [Compound 257], for which the half-inhibitory concentration (IC50) is greater than 10 µM. On to `CNc1nc(-c2cccnc2)nc2c(F)c(-c3cc4ccccc4s3)ccc12` [Compound 534], for which the IC50 was greater than 10 µM. `CNc1nc(-c2cccnc2)nc2c(F)c(-c3ccc(F)c(C)c3)ccc12` [Compound 541]: the IC50 was in the range of 1 to 10 µM. With `Cc1ccc2c(c1)CCN2c1nc(-c2cccnc2)nc2ccc(-c3cccc(F)c3F)cc12` [Compound 74], the IC50 is 1 to 10 µM. Consider `CNc1nc(-c2cccnc2)nc2c(F)c(-c3cccc(C)c3)ccc12` [Compound 525], for which the half-maximal inhibitory concentration (IC50) is 1 to 10 µM. The same measure for `Clc1ccc2c(c1)CCN2c1nc(-c2cccnc2)nc2cc(-c3cccnc3)ccc12` [Compound 99]: less than 1 µM; for `CNc1nc(-c2cccnc2)nc2c(-c3ccc(F)c(F)c3)cccc12` [Compound 278]: 1 to 10 µM. As for `Fc1cccc(-c2ccc3c(N4CCc5cc(Cl)ccc54)nc(-c4cccnc4)nc3c2)c1F` [Compound 108], the IC50 was in the range of 1 to 10 µM. For the compound `CNc1nc(-c2cnccn2)nc2ccc(-c3ccc(F)c(F)c3)c(F)c12` [Compound 977], the IC50 was 1 to 10 µM.

Usually IC50 stands for the concentration that inhibits the measured activity by half.

For the origin of these results see patent US20140315886A1, “QUINAZOLINES AS THERAPEUTIC COMPOUNDS AND RELATED METHODS OF USE” (OTSUKA PHARMACEUTICAL CO., LTD., priority 2011, published 2014).
